These results are taken from patent publication US10259808B2 (Genentech, Inc., priority 2015, dated 2019).

The target in the first experiment is T1, RORc ligand binding domain (Homo sapiens, UniProt P51449).
T1 sequence (P51449 269-508 limits assumed): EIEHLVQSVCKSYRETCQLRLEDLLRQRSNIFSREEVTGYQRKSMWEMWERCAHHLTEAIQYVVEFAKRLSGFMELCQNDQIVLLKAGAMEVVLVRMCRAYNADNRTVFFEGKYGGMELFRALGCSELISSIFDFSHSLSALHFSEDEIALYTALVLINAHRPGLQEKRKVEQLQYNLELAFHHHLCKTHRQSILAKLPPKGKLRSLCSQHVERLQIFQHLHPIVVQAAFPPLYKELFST
Briefly: In vitro RORc ligand binding assay (25-[3H]hydroxycholesterol displacement).
Conditions: not given
Consider `C[C@H]1CC[C@H](c2ccccc2)S(=O)(=O)N1Cc1cc(F)c(C2(c3nn(C)c(=O)o3)CCOCC2)cc1F` [Example 140, 5-[4-[2,5-difluoro-4-[[(3S,6R)-3-methyl-1,1-dioxo-6-phenyl-thiazinan-2-yl]methyl]phenyl]tetrahydropyran-4-yl]-3-methyl-1,3,4-oxadiazol-2-one], for which the IC50 stood at 12.8 nM.

Regarding `COc1cc([C@]2(c3cc(F)c(CN4[C@@H](C)CC[C@H](c5ccccc5)S4(=O)=O)cc3F)C[C@@](C)(O)C2)on1` [Example 162, 3-[2,5-difluoro-4-[[(3S,6R)-3-methyl-1,1-dioxo-6-phenyl-thiazinan-2-yl]methyl]phenyl]-3-(3-methoxyisoxazol-5-yl)-1-methyl-cyclobutanol], the 50% inhibitory concentration (IC50) came out at 3.6 nM.

Turning to `C[C@H]1CC[C@H](c2ccccc2)S(=O)(=O)N1Cc1cc(F)c(C2(c3nnc(N)o3)CCOCC2)cc1F` [Example 61, 5-[4-[2,5-difluoro-4-[[(3S,6R)-3-methyl-1,1-dioxo-6-phenyl-thiazinan-2-yl]methyl]phenyl]tetrahydropyran-4-yl]-1,3,4-oxadiazol-2-amine], the IC50 was 19.2 nM.

For `C[C@H]1CC[C@H](c2ccccc2)S(=O)(=O)N1Cc1cc(F)c([C@]2(Cn3cncn3)C[C@](C)(O)C2)cc1F` (racemic) [Example 182, 3-[2,5-difluoro-4-[[rac-(3S,6R)-3-methyl-1,1-dioxo-6-phenyl-thiazinan-2-yl]methyl]phenyl]-1-methyl-3-(1,2,4-triazol-1-ylmethyl)cyclobutanol], the IC50 came out at 7.3 nM.

The compound `C[C@H]1CC[C@H](c2ccccc2)S(=O)(=O)N1Cc1cc(F)c(C2(NC[C@@H]3CCC(=O)N3)COC2)cc1F` [Example 111, (5S)-5-[[[3-[2,5-difluoro-4-[[(3S,6R)-3-methyl-1,1-dioxo-6-phenyl-thiazinan-2 yl]methyl]phenyl]oxetan-3-yl]amino]methyl]pyrrolidin-2-one] returned an IC50 of 89.8 nM.

Regarding `CC(=O)OCc1nc(C2(c3ccc(CN4[C@@H](C)CC[C@H](c5ccccc5)S4(=O)=O)c(F)c3)CCOCC2)no1` [Example 27, [3-[4-[3-fluoro-4-[[(3S,6R)-3-methyl-1,1-dioxo-6-phenyl-thiazinan-2-yl]methyl]phenyl]tetrahydropyran-4-yl]-1,2,4-oxadiazol-5-yl]methyl acetate], the IC50 was 109 nM.

`C[C@H]1CC[C@H](c2ccccc2)S(=O)(=O)N1Cc1cc(F)c([C@]2(c3nc(CO)n[nH]3)C[C@](C)(O)C2)cc1F` (racemic) [Example 186, 3-[2,5-difluoro-4-[[rac-(3S,6R)-3-methyl-1,1-dioxo-6-phenyl-thiazinan-2-yl]methyl]phenyl]-3-[3-(hydroxymethyl)-1H-1,2,4-triazol-5-yl]-1-methyl-cyclobutanol] registered an IC50 of 4.4 nM.

The compound `C[C@H]1CC[C@H](c2ccccc2)S(=O)(=O)N1Cc1cc(F)c([C@]2(c3n[nH]c(=O)o3)C[C@@](C)(O)C2)cc1F` [Example 127, cis-5-[1-[2,5-difluoro-4-[[(3S,6R)-3-methyl-1,1-dioxo-6-phenyl-thiazinan-2-yl]methyl]phenyl]-3-hydroxy-3-methyl-cyclobutyl]-3H-1,3,4-oxadiazol-2-one] displayed an IC50 of 7.2 nM.

Compound `C[C@H]1CC[C@H](c2ccccc2)S(=O)(=O)N1Cc1cc(F)c([C@]2(CN3C(=O)CNC3=O)C[C@](C)(O)C2)cc1F` (racemic) [Example 179, 3-[[1-[2,5-difluoro-4-[[rac-(3S,6R)-3-methyl-1,1-dioxo-6-phenyl-thiazinan-2-yl]methyl]phenyl]-3-hydroxy-3-methyl-cyclobutyl]methyl]imidazolidine-2,4-dione] came in with a half-inhibitory concentration (IC50) of 6900 nM.

Regarding `C[C@H]1CC[C@H](c2ccccc2)S(=O)(=O)N1Cc1ccc(C2(NCc3ncnn3C)CCOCC2)cc1F` [Example 55, 4-[3-fluoro-4-[[(3S,6R)-3-methyl-1,1-dioxo-6-phenyl-thiazinan-2-yl]methyl]phenyl]-N-[(2-methyl-1,2,4-triazol-3-yl)methyl]tetrahydropyran-4-amine], the IC50 worked out at 10.7 nM.

Regarding `C[C@H]1CC[C@H](c2ccccc2)S(=O)(=O)N1Cc1cc(F)c(C2(N(C)Cc3cocn3)CCOCC2)cc1F` [Example 81, 4-[2,5-difluoro-4-[[(3S,6R)-3-methyl-1,1-dioxo-6-phenyl-thiazinan-2-yl]methyl]phenyl]-N-methyl-N-(oxazol-4-ylmethyl)tetrahydropyran-4-amine], the IC50 was determined as 8.8 nM.

`C[C@H]1CC[C@H](c2ccccc2)S(=O)(=O)N1Cc1cc(F)c(C2(NCc3cnn(C)c3)COC2)cc1F` [Example 138, 3-[2,5-difluoro-4-[[(3S,6R)-3-methyl-1,1-dioxo-6-phenyl-thiazinan-2-yl]methyl]phenyl]-N-[(1-methylpyrazol-4-yl)methyl]oxetan-3-amine] registered an IC50 of 69.4 nM.

`Cc1cncc(C(=O)NC2(c3cc(F)c(CN4[C@@H](C)CC[C@H](c5ccccc5)S4(=O)=O)cc3F)COC2)n1` [Example 109, N-[3-[2,5-difluoro-4-[[(3S,6R)-3-methyl-1,1-dioxo-6-phenyl-thiazinan-2-yl]methyl]phenyl]oxetan-3-yl]-6-methyl-pyrazine-2-carboxamide]: the IC50 came to 112 nM.

`C[C@H]1CC[C@H](c2ccccc2)S(=O)(=O)N1Cc1cc(F)c([C@]2(c3n[nH]c(=O)o3)C[C@@H](CC#N)C2)cc1F` [Example 152, cis 2-[3-[2,5-difluoro-4-[[(3S,6R)-3-methyl-1,1-dioxo-6-phenyl-thiazinan-2-yl]methyl]phenyl]-3-(2-oxo-3H-1,3,4-oxadiazol-5-yl)cyclobutyl]acetonitrile] returned an IC50 of 7.1 nM.

As to `C[C@H]1CC[C@H](c2ccccc2)S(=O)(=O)N1Cc1cc(F)c(C2(c3nnc(N)o3)CC(F)(F)C2)cc1F` [Example 132, 5-[1-[2,5-difluoro-4-[[(3S,6R)-3-methyl-1,1-dioxo-6-phenyl-thiazinan-2-yl]methyl]phenyl]-3,3-difluoro-cyclobutyl]-1,3,4-oxadiazol-2-amine], the 50% inhibitory concentration (IC50) was 12.8 nM.

`Cc1cncc(C(=O)NC2(c3cc(F)c(CN4[C@@H](C)CC[C@H](c5ccccc5)S4(=O)=O)cc3F)CCOCC2)n1` [Example 108, N-[4-[2,5-difluoro-4-[[(3S,6R)-3-methyl-1,1-dioxo-6-phenyl-thiazinan-2-yl]methyl]phenyl]tetrahydropyran-4-yl]-6-methyl-pyrazine-2-carboxamide] gave an IC50 of 19.2 nM.

In the case of `CNc1nnc(C2(c3cc(F)c(CN4[C@@H](C)CC[C@H](c5ccccc5)S4(=O)=O)cc3F)CCOCC2)o1` [Example 90, 5-[4-[2,5-difluoro-4-[[(3S,6R)-3-methyl-1,1-dioxo-6-phenyl-thiazinan-2-yl]methyl]phenyl]tetrahydropyran-4-yl]-N-methyl-1,3,4-oxadiazol-2-amine], the IC50 amounted to 13.7 nM.

In turn, `C[C@H]1CC[C@H](c2ccccc2)S(=O)(=O)N1Cc1ccc(C2(NCc3cnccn3)CCOCC2)cc1F` [Example 66, 4-[3-fluoro-4-[[(3S,6R)-3-methyl-1,1-dioxo-6-phenyl-thiazinan-2-yl]methyl]phenyl]-N-(pyrazin-2-ylmethyl)tetrahydropyran-4-amine] came in with an IC50 of 6.6 nM.

Take `C=C[C@]1(O)C[C@@](c2c[nH]c(=O)o2)(c2cc(F)c(CN3[C@@H](C)CC[C@H](c4ccccc4)S3(=O)=O)cc2F)C1` [Example 164, 5-[1-[2,5-difluoro-4-[[(3S,6R)-3-methyl-1,1-dioxo-6-phenyl-thiazinan-2-yl]methyl]phenyl]-3-hydroxy-3-vinyl-cyclobutyl]-3H-oxazol-2-one]: the 50% inhibitory concentration (IC50) was found to be 6.1 nM.

The compound `C[C@H]1CC[C@H](c2ccccc2)S(=O)(=O)N1Cc1ccc(C2(C(=O)NC3(C)COC3)CCOCC2)cc1F` [Example 9, 4-[3-fluoro-4-[[(3S,6R)-3-methyl-1,1-dioxo-6-phenyl-thiazinan-2-yl]methyl]phenyl]-N-(3-methyloxetan-3-yl)tetrahydropyran-4-carboxamide] displayed a half-maximal inhibitory concentration (IC50) of 144 nM.

The compound `C[C@H]1CC[C@H](c2ccccc2)S(=O)(=O)N1Cc1cc(F)c([C@]2(c3n[nH]c(=O)o3)C[C@@](O)(C3CC3)C2)cc1F` [Example 142, trans 5-[3-cyclopropyl-1-[2,5-difluoro-4-[[(3S,6R)-3-methyl-1,1-dioxo-6-phenyl-thiazinan-2-yl]methyl]phenyl]-3-hydroxy-cyclobutyl]-3H-1,3,4-oxadiazol-2-one] showed an IC50 of 4.3 nM.

Regarding `C[C@H]1CC[C@H](c2ccccc2)S(=O)(=O)N1Cc1cc(F)c([C@]2(c3n[nH]c(=O)o3)C[C@@H](O)C2)cc1F` [Example 124, cis-5-[1-[2,5-difluoro-4-[[(3S,6R)-3-methyl-1,1-dioxo-6-phenyl-thiazinan-2-yl]methyl]phenyl]-3-hydroxy-cyclobutyl]-3H-1,3,4-oxadiazol-2-one], the IC50 came out at 2.1 nM.

Compound `C[C@H]1CC[C@H](c2ccccc2)S(=O)(=O)N1Cc1cc(F)c(C2(Nc3ncccn3)COC2)cc1F` [Example 101, N-[3-[2,5-difluoro-4-[[(3S,6R)-3-methyl-1,1-dioxo-6-phenyl-thiazinan-2-yl]methyl]phenyl]oxetan-3-yl]pyrimidin-2-amine] displayed an IC50 of 60.7 nM.

Turning to `C[C@H]1CC[C@H](c2ccccc2)S(=O)(=O)N1Cc1cc(F)c([C@]2(c3nnc[nH]3)C[C@H](O)C2)cc1F` [Example 116, 3-[2,5-difluoro-4-[[(3S,6R)-3-methyl-1,1-dioxo-6-phenyl-thiazinan-2-yl]methyl]phenyl]-3-(4H-1,2,4-triazol-3-yl)cyclobutanol], the IC50 is 37.9 nM.

Staying with this experiment, now noted: IC50 values for RORc.
For the compound `C[C@H]1CC[C@H](c2ccccc2)S(=O)(=O)N1Cc1cc(F)c(C2(c3c[nH]c(=O)o3)CC(O)C2)cc1F` (mixture of isomers) [Example 177, 5-[1-[2,5-difluoro-4-[[rac-(3S,6R)-3-methyl-1,1-dioxo-6-phenyl-thiazinan-2-yl]methyl]phenyl]-3-hydroxy-cyclobutyl]-3H-oxazol-2-one], the IC50 is 4.3 nM.
